Experiments:
[1] = biological target: T1, LysU (heat-inducible Escherichia coli lysyl-tRNA synthetase) (Escherichia coli, UniProt P0A8N5); experiment: isothermal titration calorimetry; assay type: binding
T1 sequence (P0A8N5 2-505): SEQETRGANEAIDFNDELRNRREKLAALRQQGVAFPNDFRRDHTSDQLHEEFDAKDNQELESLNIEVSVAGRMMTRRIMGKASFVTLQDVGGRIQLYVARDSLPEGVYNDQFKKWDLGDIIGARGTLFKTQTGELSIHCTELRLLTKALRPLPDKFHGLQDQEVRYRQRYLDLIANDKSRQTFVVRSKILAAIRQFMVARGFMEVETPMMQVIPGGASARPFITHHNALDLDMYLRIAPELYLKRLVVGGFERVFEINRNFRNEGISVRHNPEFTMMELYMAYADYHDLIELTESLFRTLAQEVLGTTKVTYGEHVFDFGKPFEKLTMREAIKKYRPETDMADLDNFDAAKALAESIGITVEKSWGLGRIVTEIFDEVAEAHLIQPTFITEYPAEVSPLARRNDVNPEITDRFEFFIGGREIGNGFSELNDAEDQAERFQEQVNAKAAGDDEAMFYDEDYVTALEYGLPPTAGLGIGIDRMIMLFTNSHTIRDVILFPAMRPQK

[2] = biological target: T1, LysU (heat-inducible Escherichia coli lysyl-tRNA synthetase); experiment: biochemical

Kd [1]	SMILES	Kd [2]
1.22 ± 0.15 µM	Nc1ncnc2c1ncn2[C@@H]1O[C@H](COP(=O)(O)OP(=O)(O)CP(=O)(O)O)[C@@H](O)[C@H]1O [AMPPCP, β,γ-methyleneadenosine 5'-triphosphate]	–
–	NCCCC[C@H](N)C(=O)O [lysine]	7.96 ± 1.4 µM
